The source of these data is ChEMBL document CHEMBL3882388, “Pharmaceutical Compositions Comprising Beta-Lactam Antibiotic, Sulbactam and Beta-Lactamase Inhibitor” (2014).

Test [1] has as its target Beta-lactamase (Acinetobacter baumannii) (UniProt Q8RLA6). The test is described as follows: Inhibition of beta-lactamase in extended-spectrum b-lactamase producing Acinetobacter baumannii S-15 assessed as potentiation of cefpirome-induced antibacterial activity by measuring cefpirome MIC at 4 to 8 ug/ml incubated for 16 to 20 hrs by CLSI method.
Test [2] shares this target. The test is described as follows: Inhibition of beta-lactamase in extended-spectrum b-lactamase producing Acinetobacter baumannii S-4 assessed as potentiation of cefepime-induced antibacterial activity by measuring cefepime MIC at 4 to 8 ug/ml incubated for 16 to 20 hrs by CLSI method.
Test [3] has the same target. The test is described as follows: Inhibition of beta-lactamase in extended-spectrum b-lactamase producing Acinetobacter baumannii S-3 assessed as potentiation of cefepime-induced antibacterial activity by measuring cefepime MIC at 4 to 8 ug/ml incubated for 16 to 20 hrs by CLSI method.
For test [4] the target is unchanged. The test is described as follows: Inhibition of beta-lactamase in extended-spectrum b-lactamase producing Acinetobacter baumannii NCTC 13304 assessed as potentiation of cefepime-induced antibacterial activity by measuring cefepime MIC at 4 to 8 ug/ml incubated for 16 to 20 hrs by CLSI method.
The target is the same in test [5]. The experiment in a line: Inhibition of beta-lactamase in extended-spectrum b-lactamase producing Acinetobacter baumannii NCTC 13304 assessed as potentiation of cefpirome-induced antibacterial activity by measuring cefpirome MIC at 4 to 8 ug/ml incubated for 16 to 20 hrs by CLSI method.
The target is the same in test [6]. The test is described as follows: Inhibition of beta-lactamase in extended-spectrum b-lactamase producing Acinetobacter baumannii NCTC 13305 assessed as potentiation of cefepime-induced antibacterial activity by measuring cefepime MIC at 4 to 8 ug/ml incubated for 16 to 20 hrs by CLSI method.
For test [7] the target is unchanged. The experiment in a line: Inhibition of beta-lactamase in extended-spectrum b-lactamase producing Acinetobacter baumannii S-10 assessed as potentiation of cefpirome-induced antibacterial activity by measuring cefpirome MIC at 4 to 8 ug/ml incubated for 16 to 20 hrs by CLSI method.
Test [8] shares this target. The experiment in a line: Inhibition of beta-lactamase in extended-spectrum b-lactamase producing Acinetobacter baumannii S-10 assessed as potentiation of cefepime-induced antibacterial activity by measuring cefepime MIC at 4 to 8 ug/ml incubated for 16 to 20 hrs by CLSI method.
Test [9] has the same target. The test is described as follows: Inhibition of beta-lactamase in extended-spectrum b-lactamase producing Acinetobacter baumannii S-8 assessed as potentiation of cefpirome-induced antibacterial activity by measuring cefpirome MIC at 4 to 8 ug/ml incubated for 16 to 20 hrs by CLSI method.
Test [10] shares this target. The test is described as follows: Inhibition of beta-lactamase in extended-spectrum b-lactamase producing Acinetobacter baumannii NCTC 13305 assessed as potentiation of cefpirome-induced antibacterial activity by measuring cefpirome MIC at 4 to 8 ug/ml incubated for 16 to 20 hrs by CLSI method.
Test [11] has the same target. The experiment in a line: Inhibition of beta-lactamase in extended-spectrum b-lactamase producing Acinetobacter baumannii NCTC 13301 assessed as potentiation of cefepime-induced antibacterial activity by measuring cefepime MIC at 4 to 8 ug/ml incubated for 16 to 20 hrs by CLSI method.
Test [12] has the same target. The experiment in a line: Inhibition of beta-lactamase in extended-spectrum b-lactamase producing Acinetobacter baumannii S-15 assessed as potentiation of cefepime-induced antibacterial activity by measuring cefepime MIC at 4 to 8 ug/ml incubated for 16 to 20 hrs by CLSI method.
For test [13] the target is unchanged. The test is described as follows: Inhibition of beta-lactamase in extended-spectrum b-lactamase producing Acinetobacter baumannii S-8 assessed as potentiation of cefepime-induced antibacterial activity by measuring cefepime MIC at 4 to 8 ug/ml incubated for 16 to 20 hrs by CLSI method.
Test [14] shares this target. The test is described as follows: Inhibition of beta-lactamase in extended-spectrum b-lactamase producing Acinetobacter baumannii S-3 assessed as potentiation of cefpirome-induced antibacterial activity by measuring cefpirome MIC at 4 to 8 ug/ml incubated for 16 to 20 hrs by CLSI method.
Test [15] shares this target. The test is described as follows: Inhibition of beta-lactamase in extended-spectrum b-lactamase producing Acinetobacter baumannii S-4 assessed as potentiation of cefpirome-induced antibacterial activity by measuring cefpirome MIC at 4 to 8 ug/ml incubated for 16 to 20 hrs by CLSI method.
For test [16] the target is unchanged. The test is described as follows: Inhibition of beta-lactamase in extended-spectrum b-lactamase producing Acinetobacter baumannii NCTC 13301 assessed as potentiation of cefpirome-induced antibacterial activity by measuring cefpirome MIC at 4 to 8 ug/ml incubated for 16 to 20 hrs by CLSI method.

Chain of Beta-lactamase (Acinetobacter baumannii) (Q8RLA6 as listed by the source): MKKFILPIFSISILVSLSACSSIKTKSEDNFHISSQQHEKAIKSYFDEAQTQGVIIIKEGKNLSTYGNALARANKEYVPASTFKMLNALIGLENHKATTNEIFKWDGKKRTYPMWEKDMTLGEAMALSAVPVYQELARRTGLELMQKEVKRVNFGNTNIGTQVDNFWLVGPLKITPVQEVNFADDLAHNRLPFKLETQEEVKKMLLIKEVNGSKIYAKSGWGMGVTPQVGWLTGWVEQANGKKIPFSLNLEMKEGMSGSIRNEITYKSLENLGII

As to `CC1(C)[C@H](C(=O)O)N2C(=O)C[C@H]2S1(=O)=O`, the MIC in test [1] was 32 µg/mL; in [2], > 32 µg/mL; in test [3], > 32 µg/mL; in test [4] it was > 32 µg/mL; in test [5], 32 µg/mL; in test [6], 4 µg/mL. Moreover, the MIC was > 32 µg/mL in test [7]; > 32 µg/mL in test [8]; 32 µg/mL in test [9]; 8 µg/mL in test [10]; > 32 µg/mL in [11]; > 32 µg/mL in test [12]. Further, the MIC was 32 µg/mL in test [13], > 32 µg/mL in test [14], > 32 µg/mL in test [15] and > 32 µg/mL in test [16].
